Measurements as given in patent publication US6939511B2, “Contact lens treating method and composition” (Novartis AG, priority 2000, dated 2005).

Tested on: L929 mammalian fibroblasts
Assay: MEM (Minimum Essential Medium) USP elution in-vitro toxicity test
Type: cell-based
Description: In testing the toxicity of compounds of the compositions disclosed in solution, an MEM test procedure is used. The MEM (Minimum Essential Medium) test procedure is employed to evaluate cytoxicity using standard USP (The United States Pharmacopeial Convention) elution assays. A description of the test procedure is provided herein.
The assay provides a means of evaluating extracts of polymeric materials under direct contact conditions. This method is appropriate for high-density materials and for dose-response evaluations.
All reagents should be tissue culture grade or equivalent and should be reconstituted in accordance with manufacturer's instructions using aseptic technique.
Media Preparation: 1× MEM media is prepared by mixing 100 mL Eagle's MEM (with Earl's Salts and Sodium Bicarbonate, without L-glutamine), with 10 mL serum, 1 mL-glutamine solution, and 0.5 mL antibiotic solution (L-glutamine and antibiotic solutions are purchased at correct concentrations and stored frozen at −20° C.±2). Eagle's MEM is a sterile minimum essential medium and is available from Mediatech Celigro. Media may be stored up to 2 weeks at a temperature of 2° C.±2 after L-glutamine and antibiotics are added, or up to 1 month, if only serum is added. Preparation of 0.25% Trypsin: 10× Trypsin is placed in sterile 50 ml centrifuge tubes in 4 ml aliquots and stored frozen at −20° C.±2. Before use, a 4 ml aliquot of 10× trypsin is diluted 1:9 with 36 ml of Dulbecco's Phosphate Buffered Saline (PBS) to yield a 0.25% solution. Dulbecco's Saline is available from Mediatech Cellgro. Sterile 35 mm diameter petri dishes or 6 well tissue culture plates are used. Sterile serological pipets are employed in the procedure. Sterile absorbent material (e.g. Kay-Drys or similar material) is used. L929 mammalian fibroblasts (ATCC cell line CCL1, NCTC clone 929) are employed. […]
Exposure to Test Extracts: Exposure to test extracts is determined examining a representative prepared cell culture plate using the microscope to observe the cell monolayer for correct confluency. […]

O.O.O.O.O.O.O=C([O-])c1ccccc1C(=O)O[O-].[Mg+2] [magnesium perphthalate, magnesium monoperoxyphthalate hexahydrate]
cells dead (concentrations below 0.5%): 2-3%
MEM Test Result level (concentrations below 0.5%, generally): 1 (Slight Not more than 20% of cells round and loosely attached—occasional lysed cells present)
toxicity level MEM (concentrations of 0.5% and above, with and without saline): 4
